Experimental data published in patent publication US20130303551A1, “PYRIMIDINONE DERIVATIVES AS FATTY ACID SYNTHASE INHIBITORS” (priority 2011, published 2013).

Biological target: FAS (Homo sapiens, UniProt P49327)
Test: FAS assay (Assay #1: residual NADPH detection, or Assay #2: CoA detection with thio-reactive coumarin dye)
Type: biochemical
Conditions: average IC50, each compound tested two or more times; FAS activity measured through one of the two assays
Method: FAS Activity was Measured Through One of the Two Following Assays.
Inhibition of FAS activity can be measured based on the detection of residual NADPH substrate after the FAS assay is quenched. This assay is run as a 10 μL endpoint assay in 384-well format, where the reaction contains 20 μM malonyl-CoA, 2 μM acetyl-CoA, 30 μM NADPH and 40 nM FAS in 50 mM sodium phosphate, pH 7.0. The assay is run by sequentially dispensing 5 ul of a malonyl-CoA solution, then enzyme solution (containing the acetyl-CoA, and NADPH) into a black, low volume assay plate (Greiner 784076) pre-dispensed with […] compound solutions in DMSO. The reaction is incubated at ambient temperature for 60 minutes, then quenched with 5 μL of a developing solution composed of 90 μM resazurin, 0.3 IU/ml diaphorase in 50 mM sodium phosphate, pH 7.0. The developed reaction is read on a Molecular Devices Analyst or Acquest (or equivalent) plate reader using a 530 nm excitation wavelength filter, a 580 nm emission filter, and 561 nm dichroic filter. The test compounds are prepared in neat DMSO at a concentration of 10 mM. For inhibition curves, compounds are diluted using a three fold serial dilution and tested at 11 concentrations (e.g. 25 μM-0.42 nM). Curves are analysed using ActivityBase and XLfit, and results are expressed as pIC50 values.
Inhibition of FAS can also be quantified based on the detection of the CoA products with a thio-reactive coumarin dye. This assay is run as a 10 μL endpoint assay in 384-well format, where the reaction contains 20 μM malonyl-CoA, 20 μM acetyl-CoA, 40 μM NADPH and 2 nM FAS in 50 mM sodium phosphate, pH 7.0, and 0.04% Tween-20. The assay is run by adding 5 μL enzyme solution to a black, low volume assay plate (Greiner 784076) pre-dispensed with 100 nl compound solutions in DMSO. After 30 minutes, 5 μL substrate is added, and the reaction incubated at ambient temperature for an additional 60 minutes. The reaction is then quenched with 10 μL of 6M guanidine-HCl containing 50 μM CPM (7-diethylamino-3-(4′-maleimidylphenyl)-4-methylcoumarin (CPM; thio-reactive dye), and incubated for 30 minutes. The plate is read on an Envision (PerkinElmer) or equivalent plate reader using a 380 nm excitation wavelength filter, and a 486 nm emission filter. Data fitting and compound preparations are done as described above.

FAS, sequence (P49327 whole entry): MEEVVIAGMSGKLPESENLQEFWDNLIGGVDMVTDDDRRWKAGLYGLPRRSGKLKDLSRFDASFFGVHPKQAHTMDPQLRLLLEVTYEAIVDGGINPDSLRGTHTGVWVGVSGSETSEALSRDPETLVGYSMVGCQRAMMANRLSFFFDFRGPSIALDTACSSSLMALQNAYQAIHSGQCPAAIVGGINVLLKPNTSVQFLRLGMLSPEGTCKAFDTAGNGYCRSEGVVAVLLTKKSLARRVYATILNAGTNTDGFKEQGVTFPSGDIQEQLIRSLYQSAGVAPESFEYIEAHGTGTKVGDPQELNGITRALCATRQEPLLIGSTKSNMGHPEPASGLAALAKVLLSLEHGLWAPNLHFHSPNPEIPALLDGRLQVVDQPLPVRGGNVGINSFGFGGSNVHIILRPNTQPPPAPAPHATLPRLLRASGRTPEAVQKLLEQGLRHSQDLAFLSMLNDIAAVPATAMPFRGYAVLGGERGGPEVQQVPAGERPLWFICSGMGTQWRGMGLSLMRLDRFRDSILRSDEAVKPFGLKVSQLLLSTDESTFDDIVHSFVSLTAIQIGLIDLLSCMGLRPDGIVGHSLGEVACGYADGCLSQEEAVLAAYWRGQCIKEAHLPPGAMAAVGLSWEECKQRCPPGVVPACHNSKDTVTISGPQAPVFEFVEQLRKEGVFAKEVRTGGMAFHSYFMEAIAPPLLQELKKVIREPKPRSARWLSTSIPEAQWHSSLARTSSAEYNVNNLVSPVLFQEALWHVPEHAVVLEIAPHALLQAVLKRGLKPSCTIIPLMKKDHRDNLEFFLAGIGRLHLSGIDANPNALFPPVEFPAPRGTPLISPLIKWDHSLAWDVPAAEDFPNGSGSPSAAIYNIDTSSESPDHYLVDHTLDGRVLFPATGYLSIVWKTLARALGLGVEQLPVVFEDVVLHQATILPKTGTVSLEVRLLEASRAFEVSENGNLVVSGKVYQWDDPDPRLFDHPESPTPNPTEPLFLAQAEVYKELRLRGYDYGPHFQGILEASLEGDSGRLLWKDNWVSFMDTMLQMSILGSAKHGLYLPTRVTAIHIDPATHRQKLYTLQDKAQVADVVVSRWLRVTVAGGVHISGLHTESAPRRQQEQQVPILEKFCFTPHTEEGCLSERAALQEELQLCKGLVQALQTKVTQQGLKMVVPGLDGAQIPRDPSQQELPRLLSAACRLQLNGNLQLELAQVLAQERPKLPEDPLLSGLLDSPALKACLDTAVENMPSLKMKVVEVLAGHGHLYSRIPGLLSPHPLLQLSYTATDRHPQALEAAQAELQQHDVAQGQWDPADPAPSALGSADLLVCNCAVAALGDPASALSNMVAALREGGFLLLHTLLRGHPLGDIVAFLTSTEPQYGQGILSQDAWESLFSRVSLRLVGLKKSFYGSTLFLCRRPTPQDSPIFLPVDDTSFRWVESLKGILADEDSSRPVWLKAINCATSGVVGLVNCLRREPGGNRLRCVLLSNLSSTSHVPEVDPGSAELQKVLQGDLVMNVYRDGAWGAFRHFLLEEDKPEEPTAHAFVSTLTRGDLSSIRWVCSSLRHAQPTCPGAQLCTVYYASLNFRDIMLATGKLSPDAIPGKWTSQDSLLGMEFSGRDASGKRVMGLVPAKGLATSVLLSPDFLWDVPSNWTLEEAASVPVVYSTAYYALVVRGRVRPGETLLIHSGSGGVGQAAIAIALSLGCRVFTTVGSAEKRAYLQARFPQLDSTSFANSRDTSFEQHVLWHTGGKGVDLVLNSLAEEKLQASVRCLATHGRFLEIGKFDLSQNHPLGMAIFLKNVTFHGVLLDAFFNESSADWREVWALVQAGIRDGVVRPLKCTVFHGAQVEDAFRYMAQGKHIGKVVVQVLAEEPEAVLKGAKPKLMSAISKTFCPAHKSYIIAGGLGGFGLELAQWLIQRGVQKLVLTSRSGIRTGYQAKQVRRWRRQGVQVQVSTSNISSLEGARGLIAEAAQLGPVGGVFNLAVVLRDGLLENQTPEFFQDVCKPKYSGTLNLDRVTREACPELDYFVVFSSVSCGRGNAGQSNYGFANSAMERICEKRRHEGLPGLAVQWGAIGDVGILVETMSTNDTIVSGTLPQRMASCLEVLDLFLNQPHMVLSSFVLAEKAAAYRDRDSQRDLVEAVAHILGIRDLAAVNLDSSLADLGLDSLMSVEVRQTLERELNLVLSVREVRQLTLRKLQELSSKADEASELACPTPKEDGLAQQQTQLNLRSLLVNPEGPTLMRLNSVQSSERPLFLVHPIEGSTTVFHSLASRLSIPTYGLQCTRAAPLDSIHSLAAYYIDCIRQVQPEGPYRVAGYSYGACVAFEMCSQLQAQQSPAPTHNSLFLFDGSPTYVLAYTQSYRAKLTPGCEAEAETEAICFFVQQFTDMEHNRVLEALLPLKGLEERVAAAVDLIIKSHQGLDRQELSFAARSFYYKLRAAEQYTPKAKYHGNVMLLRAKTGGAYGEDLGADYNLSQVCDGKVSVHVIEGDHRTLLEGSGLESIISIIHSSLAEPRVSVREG

Row | SMILES | IC50 [nM]
1 | Cc1cc(=O)n(-c2ccc(-c3ccc4cc[nH]c4c3)cc2)c(C[C@@H]2CCN(C(=O)C3CC3)C2)n1 [Example 47, 2-{[(3S)-1-(cyclopropylcarbonyl)-3-pyrrolidinyl]methyl}-1-[4-(1H-indol-6-yl)phenyl]-6-methyl-4(3H)-pyrimidinone] | 10
2 | Cn1ncc2c(=O)n(C[C@@H]3CCN(C(=O)C4CC4)C3)c(-c3ccc(-c4ccc5[nH]ccc5c4)cc3)nc21 [Example 1, 5-{[(3R)-1-(cyclopropylcarbonyl)-3-pyrrolidinyl]methyl}-6-[4-(1H-indol-5-yl)phenyl]-1-methyl-1,5-dihydro-4H-pyrazolo[3,4-d]pyrimidin-4-one] | 7.9
3 | Cc1cc(=O)nc(C[C@@H]2CCN(C(=O)C3CC3)C2)n1-c1ccc(-c2ccc3occc3c2)cc1 [Example 49, 1-[4-(1-benzofuran-5-yl)phenyl]-2-{[(3S)-1-(cyclopropylcarbonyl)-3-pyrrolidinyl]methyl}-6-methyl-4(1H)-pyrimidinone] | 3160
4 | Cc1nc2c(=O)n(C[C@@H]3CCN(C(=O)C4CC4)C3)c(-c3ccc(-c4ccc5[nH]ncc5c4)cc3)nc2o1 [Example 11, 6-{[(3R)-1-(cyclopropylcarbonyl)-3-pyrrolidinyl]methyl}-5-[4-(1H-indazol-5-yl)phenyl]-2-methyl[1,3]oxazolo[5,4-d]pyrimidin-7(6H)-one] | 25.1
5 | COc1ccc(-c2ccc(-c3nc4ccccc4c(=O)n3C[C@@H]3CCN(C(=O)C4CC4)C3)cc2)c(Cl)c1 [Example 24, 2-[2-chloro-4(methoxy)-4-bipheny]-3-{[(3R)-1-(cyclopropylcarbonyl)-3-pyrrolidinyl]methyl}-4(3H)-quinazolinone] | 200
6 | Cc1cc(=O)n(C[C@@H]2CCN(C(=O)C3CC3)C2)c(-c2ccc(-c3ccc4[nH]ccc4c3)cc2)n1 [Example 26] | 3.16
